Test results published in US6531148B1, “Therapeutic agents” (Takara Shuzo Co., Ltd., priority 1998, dated 2003).
Read-outs that look alike come from different tables or passages of the source.

How the values were obtained:
[1] = system: Bacteria 1 to 5; test: Antimicrobial activity test (overall statement); type: cell-based
Description: The antimicrobial activities of DGE against Escherichia coli W3110 (Bacterium 1), Salmonella typhimurium LT2 (Bacterium 2), Bacillus subtilis IFO3021 (Bacterium 3), Pseudomonas aeruginosa IFO3080 (Bacterium 4) and Streptococcus mutans GS5 (Bacterium 5) were examined as follows.
The Bacteria 1 to 4 were cultured overnight in L-broth. The cultures were diluted to a concentration of about 2×10^5 cells/180 μl with Sensitive Bouillon medium (Nissui) base on the turbidity. The Bacterium 5 was cultured overnight in Brain Heart Infusion medium. The culture was diluted to a concentration of about 2×10^5 cells/180 μl with Brain Heart Infusion medium based on the turbidity. 180 μl of each bacterial dilution was placed in each well of a 96-well microtiter plate. On the other hand, the respective bacterial dilutions were further diluted and spread onto plates of L-broth or Brain Heart Infusion medium. The plates were incubated at 37° C. overnight. The resulting colonies were counted to determine the stating viable cell numbers.
A 14.4 mg/ml DGE solution was diluted every 2-folds to prepare serial dilutions. 20 μl each of the dilutions was placed in the well in which the bacterial dilution had been placed. The cells were cultured at 37° C. for 24 hours without shaking. After cultivation, the turbidity of each culture was measured.
Furthermore, the culture from the well for which the growth of bacterial cells was not observed was spread onto plates. After the plates were incubated at 37° C. overnight, the colony number was counted to determine the viable cell number. […] The minimal growth-inhibitory concentrations and the minimal bacteriocidal concentrations of DGE for the Bacteria 1 to 5 were determined as shown in Table 2.

[2] = system: Ehrlich's carcinoma cells; test: Carcinostatic activity test, Ehrlich's carcinoma; type: in vivo, mice; details: for 30-day survival number: 6 mice per group, control 0; for Average days of survival: 30 days observation, control 14.3; for carcinostatic activity: mouse, in vivo
Description: (2) Ehrlich's carcinoma cells were administered to 18 female ddY mice (5 weeks old, weighing about 25 g) intraperitoneally (1.2×10^6 cells/mouse). Observation was continued for 30 days. The average days of survival, the prolongation rate and the 30-day survival number were then calculated. Mice were divided into 3 group each consisting of 6 mice. One was a control group, and other two groups received DGE at 2 mg/kg and 20 mg/kg, respectively. DGE was intraperitoneally administered for 4 days from the day after the administration of cancer.

[3] = system: DSEK cells; test: Antirheumatic activity test (DSEK cell growth, WST-1); type: cell-based, human; details: for antirheumatic activity (growth inhibition of rheumatoid cells) / IC50: DSEK cells; for IC50: Homo sapiens, read-out: concentration that results in the inhibition of the growth of half-cells (IC50)
Description: DSEK cell is a fibroblast cell line established from a synovial membrane of a human patient with chronic rheumatism and is held at Department of Second Internal Medicine, Integrated Medical Center, Saitama Collage of Medicine as an in vitro rheumatoid model. DSEK cells were cultured in Iscov-MEM medium (IMDM: Gibco-BRL) containing 10% FBS (Bio Whittaker) at 37° C. in the presence of 5% CO2 to confluence. The cells were suspended in the same medium at a concentration of 3×10^4 cells/ml using a trypsin-EDTA solution (Bio Whittaker). 200 μl of the suspension was dispensed into each well of a 96-well microtiter plate (Falcon). After culturing for 5 to 7 days at which time the cells grew to 80% confluence, the medium was changed to 200 μl of the above-mentioned medium containing DGE at a 25, 50, 75, 100, 200 or 400 μM.
After incubating for 24 or 72 hours, 10 μl of Premix WST-1 (Takara Shuzo, MK400) was added to the well. The mixture was reacted at 37° C. for 3.5 hours. The degree of cell growth was expressed by a value obtained by subtracting the absorbance at 650 nm (A650) from the absorbance at 450 nm (A450).

[4] = system: 70-kDa heat shock protein; test: Heat shock protein induction test; type: cell-based; set-up: key to Induction of heat shock protein: − means that no induction was observed; + represents the induction level. Increased number of + means increased induction; + +: + represents the induction level. Increased number of + means increased induction; + + +: + represents the induction level. Increased number of + means increased induction; + + + +: + represents the induction level. Increased number of + means increased induction; details: HL-60 cells; for activity of inducing heat shock protein: 70-kDa heat shock protein; for Induction of heat shock protein: 6 hours
Description: 5 ml of RPMI 1640 medium containing 10% fetal bovine serum and HL-60 cells at a concentration of 2×10^5 cells/ml was placed in each well of a 6-well plate. The plate was incubated at 37° C. for 24 hours in the presence of 5% CO2. DGE at a final concentration of 0, 6.25, 12.5, 25, 50 or 100 μM was then added thereto. The incubation was continued for additional 6 hours.
After cultivation, the cell number was counted.
The cells were harvested by centrifugation, washed with PBS to prepare DGE-treated cells. Cells that were cultured in the same manner after heated at 45° C. for 10 minutes were also prepared.
These treated cells were used for SDS-PAGE according to the method as described in Molecular Cloning [Cold Spring Harbor Laboratory Press (1989)]. The treated cells were suspended in SDS-PAGE Sample buffer at a concentration of 2.5×10^6 cells/ml. The cell suspensions were treated at 100° C. for 10 minutes. 5 μl each of the cell suspensions was applied to two SDS-PAGE gels (5% stacking gel, 10% separation gel) and electrophoresed. One of the gels was subjected to Coomassie staining. The other gel was blotted onto a polyvinylidene difluoride transfer membrane [Immobilon™, Millipore, Cat. # IPVH000-10]. The membrane was blocked at 4° C. overnight using Block Ace (Dainippon Pharmaceutical, Cat. # UK-B25).
The blocked membrane was reacted with a monoclonal antibody HSP72/73(Ab-1) (Oncogene Research Products, Cat. # HSP01), which specifically reacts with heat-inducible 70-kDa heat shock protein. The membrane was washed with TBS containing 0.05% Tween 20 followed by TBS. The membrane was then reacted with a peroxidase-conjugated secondary antibody HRT-rabbit anti-mouse IgG (H+L) (Zymed Laboratories, Inc., Cat. # 61-6520), and then washed as described above. The membrane reacted with the primary and secondary antibodies was reacted with a chemiluminol reagent, Renaissance™ (Dupont NEN, Cat. # NEL-100). The membrane was then exposed to an X-ray film to confirm the induction of 70-kDa heat shock protein.

[5] = DGE at 2 mg/kg intraperitoneally for 4 days
[6] = DGE at 20 mg/kg intraperitoneally for 4 days

Compound: O=C1C=CC(CO)OC1O [DGE, L-glycero-1,5-epoxy-1αβ,6-dihydroxy-cis-hex-3-en-2-one]
- antimicrobial activity [1]: exhibited an antimicrobial activity
- 30-day survival number [2, 5]: 1
- Average days of survival [2, 5]: 23.7 days
- 30-day survival number [2, 6]: 3
- Average days of survival [2, 6]: 28.0 days
- carcinostatic activity [2]: exhibited a carcinostatic activity
- Degree of cell growth (A450-650) ([3]; DGE 25 μM, culture period 24 hours, 0 μM 3.98): 3.86
- Degree of cell growth (A450-650) ([3]; DGE 25 μM, culture period 72 hours, 0 μM 3.94): 3.33
- Degree of cell growth (A450-650) ([3]; DGE 50 μM, culture period 24 hours, 0 μM 3.98): 3.24
- Degree of cell growth (A450-650) ([3]; DGE 50 μM, culture period 72 hours, 0 μM 3.94): 3.25
- Degree of cell growth (A450-650) ([3]; DGE 100 μM, culture period 24 hours, 0 μM 3.98): 2.88
- Degree of cell growth (A450-650) ([3]; DGE 100 μM, culture period 72 hours, 0 μM 3.94): 2.05
- Degree of cell growth (A450-650) ([3]; DGE 200 μM, culture period 24 hours, 0 μM 3.98): 1.26
- Degree of cell growth (A450-650) ([3]; DGE 200 μM, culture period 72 hours, 0 μM 3.94): 0.48
- Degree of cell growth (A450-650) ([3]; DGE 400 μM, culture period 24 hours, 0 μM 3.98): 0.71
- Degree of cell growth (A450-650) ([3]; DGE 400 μM, culture period 72 hours, 0 μM 3.94): 0.35
- antirheumatic activity (growth inhibition of rheumatoid cells) [3]: the growth of the rheumatoid cells was strongly inhibited
- IC50 ([3]; at 24 hours): 207 µM
- IC50 ([3]; at 72 hours): 112 µM
- activity of inducing heat shock protein [4]: the induction of 70-kDa heat shock protein by DGE was observed
- Induction of heat shock protein ([4]; 6.25 μM DGE): +
- Induction of heat shock protein ([4]; 12.5 μM DGE): +
- Induction of heat shock protein ([4]; 25.0 μM DGE): + +
- Induction of heat shock protein ([4]; 50.0 μM DGE): + + +
- Induction of heat shock protein ([4]; 100 μM DGE): + + + +

Compound: O=C1C=CC(CO)OC1O [κ-DGE, D-glycero-1,5-epoxy-1αβ,6-dihydroxy-cis-hex-3-en-2-one]
- antimicrobial activity [1]: also exhibited similar activities
- carcinostatic activity [2]: also exhibited similar activities
- antirheumatic activity (growth inhibition of rheumatoid cells) [3]: also exhibited similar activities
- activity of inducing heat shock protein [4]: also exhibited similar activities of inducing heat shock protein

Compound: 5-L-glutathion-S-yl-2-hydroxy-3,7-dioxabicyclo[2.2.2]octan-1-ol [DGE-GSH]
- antimicrobial activity [1]: also exhibited similar activities
- carcinostatic activity [2]: also exhibited similar activities
- antirheumatic activity (growth inhibition of rheumatoid cells) [3]: also exhibited similar activities
- activity of inducing heat shock protein [4]: also exhibited similar activities of inducing heat shock protein
